The star is where a group is joined. Myristoyl = CCCCCCCCCCCCCC(=O)*
Experiments:
[1] = Detection of VTB epitope and VTB subunit by pH arming liposomal assay
[2] = Cloaking of peptide activity with pH and DNA binding, calcein liposome lysis
Method: Calcein liposomes containing (5 μM lipid) were added to 2 ml phosphate buffered saline containing the peptide (0.4 μM) and the fluorescence recorded. This was carried out at pH values of 6.6 and 7.4. The fluorescence intensity indicative of leakage after five minutes was expressed as a % of lysis obtained with 10 μl of 10% Triton-X100. the latter taken to represent 100% lysis. The experiment was repeated whereby the peptide was pre-condensed with calf thymus DNA (Sigma) at charge ratio to give minimum lysis at pH 7.4. […] Thus the DNA condensate of the peptide would require both the de-condensation and slightly acidic conditions to cause lysis. Cloaking of peptides with DNA binding and pH has obvious advantages when delivering genes via the endosome route where low pH is encountered. A combination of highly anionic region (towards the N terminal end of peptide 13 table 1 residues LEAALAEALEAL) and highly cationic region (the c terminal end of peptide 13 table 1, residues RRRRQQ,) within the same polypeptide sequence is critical to this fuction.
To assess condensation of DNA to peptide and its effect on cytolytic activity, assays were performed at several different pH values and at different peptide to DNA ratios. […] The peptide or complexes have a property of retaining high basic character on one end which is essential for DNA binding while retaining highly acidic character on the other half of the molecule which is critical for pH switching.

[3] = Liposome-peptide integral complex: pH-triggered calcein release and stability; conditions: after Sepharose CL-6B column, FIG. 8A
Source text: A fatty acid incorporated on the N-terminal of peptide anchors the sequence with liposomes to form integral complex which can then be used as single stable reagent that can be triggered to release the contents-of the liposomoes when the pH is ideal (i.e physiological 7.4) or acidic (e.g 6.2). In the first instance we prepared the liposome-peptide complex at a predetermined ratio of lipid-to peptide (30:1) in pH 8 buffer using peptide 10. […] The complex between liposomes and peptide was formed by adding peptide to […] of 10 mM NaP containing 140 mM NaCl, 1 mM EDTA, 5 mM Hepes pH 8 buffer, containing 100 μl of calcein encapsulating liposomes. The mixture was incubated for 20 mins to form the complex prior to use. In order to ascertain that the lysis is occurring due to the formation of complex and not as the action of the peptide per se it was essential to purify the liposome-peptide complex. The peptide to lipid ratio in this complex is 1:30. The complex was applied to a Sepharose CL-6B column. Fractions corresponding to liposomes were collected as clearly visible to the eye. Aliquots of these fractions were then tested for lytic activity at acidic and physiological pH values. The key aim was to establish that the peptide is liposome associated and would thus be eluted with liposome fraction in the void volume. We used 100 μl complex (a column purified fraction) and followed the release of Calcein at two different pH values.
FIG. 8A. […] Upper curve pH 5.8. Lower curve pH 7.4.
2 ml buffer (10 mM Na phosphate, 140 mM NaCl, 1 mM EDTA, 5 mM HEPES)+50 μl purified complex. Lipsomes used were 50 nm extruded. Curves top to bottom are pH 6.2, 6.4, 6.7, 7.0, 7.4
Complex 20 μl liposomes+60 μl pH 8 buffer+20 μl peptide (0.1 mg/ml) prepared and used within 2 minutes. 10 μl was added to each of the cuvettes containing 2 ml buffers. Top curve pH 6.2 (triton was added towards the end indicated by sharp dip in fluorescence to check full lysis), the lower curve is at pH 7.4. Samples measured simultaneously.
5 μL of complex in 2 ml of buffer tested 20 minutes after preparation. Upper curve pH 6.2, Lower curve pH 7.4.
5 μL of complex in 2 ml of buffer tested 5 hrs after preparation. Upper curve pH 6.2 and lower curve pH 7.4.
5 μL of complex in 2 ml of buffer tested 24 hrs after preparation curve pH 6.2, Lower curve pH 7.4.

[4] = Activation of phosphorylated peptide by alkaline phosphatase, calcein liposome lysis
Method: Alkaline phosphatase (bovine intestinal mucosa) obtained from Sigma was used for dephosphorylation of peptide at the serine phosphate. A 10 μl of Peptide solution (0.01 mg/ml) was added to 2 ml of 10 mM HEPES buffer at pH 6.8 and 10 units of alkaline phosphatase added. After allowing 10-minute incubation for dephosphorylation calcein liposomes (5 μM lipid) were added and fluorescence intensity recorded using wavelengths of 490 nm for excitation and 520 nm for emission. Control experiment was conducted in the absence of alkaline phosphates. […] Thus the enzyme treatment yielded the dephosphorylated peptide resulting in activation of the peptide under mildly acidic conditions 3 μl of 0.1 mg/ml of peptide 12 (table 1) was incubated for 10 minutes with alkaline phosphatase in 20 μl 10 mM Tris-HCL pH 8 buffer. This was then added (see arrow on FIG. 14B) to 2 ml PBS pH 6.6 buffer containing 3 μl of calcein liposomes (3 mg/ml lipid concentration). Fluorescence was recorded as a function of time with excitation and emission wavelengths of 490 nm and 520 nm respectively. A similar experiment was carried out in the absence of alkaline phosphatase.

Myr-EAALAEALAEALAEGK(ELFTNR)PALISWRRRLQQ-amide [peptide 6]
detection of VTB subunit by release of calcein ([1]; VTB subunit competing for anti-epitope antibody, pH 6.8, FIG. 7): could also be detected
pH sensitivity of cytolytic activity ([1]; analogous to parent Peptide 2): pH sensitive
detection of VTB epitope by release of calcein ([1]; free epitope (ELFTNR) competing for 6 μg anti-epitope antibody, FIG. 6): could be detected

Myr-LEAALAEALEALAAGKPALISWIRRRRQQ-Amide (Myristoyl-LEAALAEALEALAAGKPALISWIRRRRQQ-NH2; SMILES CCCCCCCCCCCCCC(=O)N[C@@H](CC(C)C)C(=O)N[C@@H](CCC(=O)O)C(=O)N[C@@H](C)C(=O)N[C@@H](C)C(=O)N[C@@H](CC(C)C)C(=O)N[C@@H](C)C(=O)N[C@@H](CCC(=O)O)C(=O)N[C@@H](C)C(=O)N[C@@H](CC(C)C)C(=O)N[C@@H](CCC(=O)O)C(=O)N[C@@H](C)C(=O)N[C@@H](CC(C)C)C(=O)N[C@@H](C)C(=O)N[C@@H](C)C(=O)NCC(=O)N[C@@H](CCCCN)C(=O)N1CCC[C@H]1C(=O)N[C@@H](C)C(=O)N[C@@H](CC(C)C)C(=O)N[C@H](C(=O)N[C@@H](CO)C(=O)N[C@@H](Cc1c[nH]c2ccccc12)C(=O)N[C@H](C(=O)N[C@@H](CCCNC(=N)N)C(=O)N[C@@H](CCCNC(=N)N)C(=O)N[C@@H](CCCNC(=N)N)C(=O)N[C@@H](CCCNC(=N)N)C(=O)N[C@@H](CCC(N)=O)C(=O)N[C@@H](CCC(N)=O)C(N)=O)[C@@H](C)CC)[C@@H](C)CC) [Peptide 13]
lysis of calcein liposomes when no DNA is present ([2]; 0.4 μM peptide, pH 6.6 vs 7.4, five minutes, FIG. 15): activated by acidic pH
cytolytic activity with DNA at acidic pH ([2]; DNA substantially dissociated): activity is regained
effect of DNA binding on peptide activity ([2]; pre-condensed with calf thymus DNA, FIG. 15): substantial inactivation
cytolytic activity bound to DNA at physiological pH ([2]; several peptide to DNA ratios): inactive

Myr-WBALAEALAEALAEHLAKALAEALEALAA-Amide [peptide 10]
Calcein release from purified liposome-peptide complex at pH 5.8 ([3]; peptide to lipid 1:30, pH 5.8): acid triggered release
Calcein release from purified liposome-peptide complex at pH 7.4 ([3]; peptide to lipid 1:30, pH 7.4): little or no release

Myr-WEA ALA EAL AEA S(Phospho)AE HLA RAL AEA LEA LAA-Amide [peptide 12]
dye release in the presence of alkaline phosphatase, pH 6.8 ([4]; 10 units alkaline phosphatase, 10 mM HEPES pH 6.8, FIG. 14A): substantial dye release
dye release, enzyme treated peptide, pH 6.6 ([4]; alkaline phosphatase pre-incubation pH 8, then PBS pH 6.6, FIG. 14B curve 1): release of the dye
dye release, non-treated peptide, pH 6.6 ([4]; no alkaline phosphatase, PBS pH 6.6, FIG. 14B curve 2): no or little rate increase
dye release in the absence of enzyme, pH 6.8 ([4]; no alkaline phosphatase, pH 6.8, FIG. 14A): low release

— patent US7718613B2, “Armed peptides” (priority 2001, dated 2010)
